Measured values taken from patent publication US8986737B2, “Antibiotic microspheres for treatment and prevention of osteomyelitis and enhancement of bone regrowth” (Wm. Marsh Rice University, priority 2002, dated 2015).
Values after ≈ are worked out from the molar mass of the structure shown. Where two headings read alike, the source gives them in different places.

Tested on: S. aureus UAMS-1 (ATCC 49230)
Test: MIC and MBC determination by standard dilution methods
Type: cell-based, Staphylococcus aureus
Method: The strain of S. aureus used in this study, UAMS-1, was isolated from a patient with osteomyelitis and deposited at the American Type Culture Collection as strain ATCC 49230. The bacteria were prepared from overnight cultures grown in tryptic soy broth at 37° C. with aeration. Cells were harvested by centrifugation, washed with sterile physiological saline, and resuspended to a final concentration of 2×10^8 CFU/ml (OD of 60% transmittance). Cell suspensions were prepared on the day of surgery and held on ice until implanted.
Minimum inhibitory concentration (MIC) and minimum bactericidal concentration (MBC) for the two antibiotics tested, tobramycin and cefazolin, were determined by standard dilution methods published by the National Committee for Clinical Laboratory Standards. Briefly, S. aureus cells were grown and diluted to 0.5 McFarland turbidity standard, approximately 2×10^8 cells/ml. The cells were mixed with either of the two antibiotics tested, at concentrations ranging from 2 μg/ml to 64 μg/ml. The following day, the cultures were examined for turbidity to allow determination of MIC values. After this, sample clear cultures were plated to determine the MBC, and colonies counts were done the next day.
Minimum inhibitory concentration and minimum bactericidal concentration for tobramycin was determined as previously described above, by standard dilution methods published by the National Committee for Clinical Laboratory Standards.

[1] = Staphylococcus aureus, ATCC49230, read-out: MBC
[2] = Staphylococcus aureus, ATCC49230, read-out: MIC

Row | MIC [µg/mL] | MIC [2] [µg/mL] | SMILES | MBC [µg/mL] | MBC [1] [µg/mL]
1 | 4 to 8 | 4 to 8 (≈ 8.56 to 17.1 µM) | NC[C@H]1O[C@H](O[C@H]2[C@H](O)[C@@H](O[C@H]3O[C@H](CO)[C@@H](O)[C@H](N)[C@H]3O)[C@H](N)C[C@@H]2N)[C@H](N)C[C@@H]1O [Tobramycin] | 16 (≈ 34.2 µM) | 16 (≈ 34.2 µM)
2 | – | 2 (≈ 4.4 µM) | Cc1nnc(SCC2=C(C(=O)O)N3C(=O)[C@@H](NC(=O)Cn4cnnn4)[C@H]3SC2)s1 [Cefazolin] | – | 32 (≈ 70.4 µM)
